Molecules are shown by their SMILES. Activity calls are given as the source filed them.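 Rule for the calls: active = compound whose fitted luminescence drop, meaning cytotoxicity, reaches half effect at most twice its top valid tested dose; inconclusive = flat curve with a moderate drop, or an unreliable fit; inactive = rise instead of drop, flat response, or weaker potency.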

This assay can be described thus: mouse fibroblast viability loss – cell-based, cherry-pick samples, set 2, cytotoxicity control for T. cruzi growth inhibitor project, dose response (AID 651817). The note with it: NIH/3T3 viability, ATP luminescence (CellTiter-Glo), 90 h.

Regarding `COc1ccc(CN(C)C[C@@H]2Oc3c(NC(=O)c4ccncc4)cccc3C(=O)N([C@H](C)CO)C[C@H]2C)cc1`, the activity change, negative = cytotoxicity (at 19.5 µM (top of the series)) was -20.7% (inactive).

As to `Cc1ccc(S(=O)(=O)N(C)C[C@@H]2Oc3ccc(NS(=O)(=O)c4ccccc4)cc3CC(=O)N([C@H](C)CO)C[C@H]2C)cc1`, under “at 19.5 µM (top of the series)”, the activity change, negative = cytotoxicity is -18.9% (inactive). Same read-out and setting: as for `C[C@@H]1CN([C@@H](C)CO)C(=O)c2cccc(NC(=O)c3ccncc3)c2O[C@H]1CN(C)CC1CC1`, the figure is -16.5% (inactive); as for `COc1ccc(CN(C)C[C@H]2Oc3c(NC(=O)Nc4ccc(C(F)(F)F)cc4)cccc3C(=O)N([C@H](C)CO)C[C@@H]2C)cc1`, -1.02% (inactive).

With `C[C@H](CO)N1C[C@H](C)[C@@H](CN(C)Cc2ccc(Cl)c(Cl)c2)Oc2c(NC(=O)c3ccncc3)cccc2C1=O`, the activity change, negative = cytotoxicity (at 19.5 µM (top of the series)) is -21.9% (inactive). The same measure, in the same setting: as for `C[C@H](CO)N1C[C@H](C)[C@H](CN(C)Cc2ccc3c(c2)OCO3)Oc2c(NC(=O)c3ccncc3)cccc2C1=O`, the figure is -7.03% (inactive); as for `C[C@H]1CN([C@@H](C)CO)C(=O)c2cccc(NC(=O)c3ccncc3)c2O[C@H]1CN(C)Cc1ccc(C(F)(F)F)cc1`, -30.7% (inactive). Same read-out and setting: as for `C[C@H]1CN([C@@H](C)CO)C(=O)c2cccc(NC(=O)c3nc4ccccc4s3)c2O[C@@H]1CN(C)S(=O)(=O)c1ccc(Cl)cc1`, the figure is -9.43% (inactive).

Turning to `C[C@H](CO)N1C[C@H](C)[C@H](CN(C)Cc2ccc(Oc3ccccc3)cc2)Oc2c(NC(=O)c3ccncc3)cccc2C1=O`, the activity change, negative = cytotoxicity (at 19.5 µM (top of the series)) is -12.3% (inactive). On the same count and under the same terms, as for `Cc1ccc(S(=O)(=O)N(C)C[C@@H]2Oc3c(NC(=O)c4nc5ccccc5s4)cccc3C(=O)N([C@@H](C)CO)C[C@H]2C)cc1`, the figure is -13.6% (inactive). Consider `Cc1ccc(S(=O)(=O)N(C)C[C@H]2Oc3ccc(NS(=O)(=O)c4ccc(Cl)cc4)cc3CC(=O)N([C@@H](C)CO)C[C@@H]2C)cc1`, for which, for the setting “at 21 µM (top of the series)”, the activity change, negative = cytotoxicity is -2.46% (inactive). In the case of `C[C@H]1CN([C@@H](C)CO)C(=O)c2cccc(NC(=O)c3nc4ccccc4s3)c2O[C@H]1CN(C)Cc1ccc2c(c1)OCO2`, the activity change, negative = cytotoxicity (at 19.5 µM (top of the series)) is -36.3% (inactive). Same read-out and setting: as for `Cc1noc(C)c1NC(=O)Nc1cccc2c1O[C@H](CN(C)S(C)(=O)=O)[C@@H](C)CN([C@@H](C)CO)C2=O`, the figure is -18.2% (inactive); as for `Cc1ccc(S(=O)(=O)N(C)C[C@H]2Oc3c(NC(=O)c4nc5ccccc5s4)cccc3C(=O)N([C@H](C)CO)C[C@H]2C)cc1`, 14.1% (inactive); as for `Cc1ccc(S(=O)(=O)Nc2ccc3c(c2)CC(=O)N([C@@H](C)CO)C[C@H](C)[C@@H](CN(C)Cc2ccccc2)O3)cc1`, 30.9% (inactive). For `C[C@@H]1CN([C@H](C)CO)C(=O)c2cccc(NC(=O)c3ccncc3)c2O[C@@H]1CN(C)Cc1ccc(-c2ccccc2)cc1`, the activity change, negative = cytotoxicity (at 19.5 µM (top of the series)) was 6.2% (inactive). On to `Cc1ccc(S(=O)(=O)N(C)C[C@H]2Oc3ccc(NS(=O)(=O)c4ccccc4)cc3CC(=O)N([C@@H](C)CO)C[C@H]2C)cc1`, for which the activity change, negative = cytotoxicity (at 21 µM (top of the series)) was -30.2% (inactive).

On to `Cc1ccc(S(=O)(=O)Nc2ccc3c(c2)CC(=O)N([C@H](C)CO)C[C@H](C)[C@@H](CN(C)S(=O)(=O)c2ccc(Cl)cc2)O3)cc1`, for which the activity change, negative = cytotoxicity (at 19.5 µM (top of the series)) was -14.6% (inactive). The same measure, in the same setting: as for `C[C@@H]1CN([C@H](C)CO)C(=O)c2cccc(NC(=O)c3ccncc3)c2O[C@H]1CN(C)CC1CC1`, the figure is -26.2% (inactive).

For the compound `C[C@H]1CN([C@@H](C)CO)C(=O)c2cccc(NC(=O)c3ccncc3)c2O[C@@H]1CN(C)Cc1ccc(Oc2ccccc2)cc1`, where the note is “at 19.5 µM (top of the series)”, the activity change, negative = cytotoxicity is -16.8% (inactive). Regarding `C[C@@H]1CN([C@@H](C)CO)C(=O)c2cccc(NC(=O)NC3CCCCC3)c2O[C@@H]1CN(C)S(=O)(=O)c1ccc(F)cc1`, the activity change, negative = cytotoxicity (at 19.5 µM (top of the series)) was 21.4% (inactive).

As to `C[C@@H]1CN([C@@H](C)CO)C(=O)Cc2cc(NS(=O)(=O)c3ccccc3)ccc2O[C@@H]1CN(C)S(=O)(=O)c1ccc(Cl)cc1`, the activity change, negative = cytotoxicity (at 19.5 µM (top of the series)) is -12.4% (inactive).

Take `C[C@H]1CN([C@@H](C)CO)C(=O)c2cccc(NC(=O)c3ccncc3)c2O[C@@H]1CN(C)Cc1ccc2c(c1)OCO2`: under “at 19.5 µM (top of the series)”, the activity change, negative = cytotoxicity was -3.23% (inactive). As to `C[C@@H]1CN([C@H](C)CO)C(=O)c2cccc(NC(=O)Nc3ccc(C(F)(F)F)cc3)c2O[C@@H]1CN(C)Cc1ccc(Cl)c(Cl)c1`, the activity change, negative = cytotoxicity (at 4.2 µM (top of the series)) was 37.5% (inactive). With `C[C@@H]1CN([C@@H](C)CO)C(=O)c2cccc(NC(=O)c3ccncc3)c2O[C@@H]1CN(C)Cc1ccc(Cl)c(Cl)c1`, the activity change, negative = cytotoxicity (at 19.5 µM (top of the series)) is 33% (inactive). For the compound `C[C@H]1CN([C@@H](C)CO)C(=O)c2cccc(NC(=O)c3ccncc3)c2O[C@H]1CN(C)Cc1ccc2c(c1)OCO2`, the activity change, negative = cytotoxicity (at 21 µM (top of the series)) was 4.17% (inactive). Consider `COc1ccc(CN(C)C[C@H]2Oc3c(NC(=O)c4ccncc4)cccc3C(=O)N([C@H](C)CO)C[C@@H]2C)cc1`, for which, where the note is “at 19.5 µM (top of the series)”, the activity change, negative = cytotoxicity was 23.4% (inactive). With `C[C@H](CO)N1C[C@H](C)[C@@H](CN(C)S(=O)(=O)c2ccc(Cl)cc2)Oc2c(NC(=O)c3nc4ccccc4s3)cccc2C1=O`, under “at 19.5 µM (top of the series)”, the activity change, negative = cytotoxicity is 14.7% (inactive).

As to `Cc1ccc(S(=O)(=O)N(C)C[C@@H]2Oc3ccc(NS(=O)(=O)c4ccc(Cl)cc4)cc3CC(=O)N([C@H](C)CO)C[C@H]2C)cc1`, the activity change, negative = cytotoxicity (at 21 µM (top of the series)) was -11.6% (inactive). `C[C@H]1CN([C@@H](C)CO)C(=O)c2cccc(NC(=O)c3ccncc3)c2O[C@H]1CN(C)CC1CCCCC1`: the activity change, negative = cytotoxicity (at 19.5 µM (top of the series)) was 36.4% (inactive).

As for `C[C@@H]1CN([C@H](C)CO)C(=O)Cc2cc(NS(=O)(=O)c3ccc(F)cc3)ccc2O[C@H]1CN(C)Cc1ccc(Cl)c(Cl)c1`, the activity change, negative = cytotoxicity (at 19.5 µM (top of the series)) was -17.9% (inactive). Still for that read-out and setting: as for `C[C@@H]1CN([C@@H](C)CO)C(=O)c2cccc(NC(=O)c3ccncc3)c2O[C@H]1CN(C)Cc1ccc2c(c1)OCO2`, the figure is -26.4% (inactive). With `Cc1ccc(S(=O)(=O)N(C)C[C@H]2Oc3c(NC(=O)c4nc5ccccc5s4)cccc3C(=O)N([C@@H](C)CO)C[C@H]2C)cc1`, the activity change, negative = cytotoxicity (at 21 µM (top of the series)) is -14.2% (inactive). Same read-out and setting: as for `C[C@@H]1CN([C@@H](C)CO)C(=O)c2cccc(NC(=O)c3ccncc3)c2O[C@@H]1CN(C)Cc1ccc(Oc2ccccc2)cc1`, the figure is 31.2% (inactive). Consider `C[C@@H]1CN([C@H](C)CO)C(=O)c2cccc(NC(=O)c3nc4ccccc4s3)c2O[C@H]1CN(C)S(=O)(=O)c1ccc(Cl)cc1`, for which, for the setting “at 19.5 µM (top of the series)”, the activity change, negative = cytotoxicity is -10.1% (inactive). Still for that read-out and setting: the figure for `C[C@H](CO)N1C[C@H](C)[C@@H](CN(C)S(=O)(=O)c2ccc(Cl)cc2)Oc2ccc(NS(=O)(=O)c3ccc(Cl)cc3)cc2CC1=O` is -32.5% (inactive).

Take `C[C@@H]1CN([C@@H](C)CO)C(=O)c2cccc(NC(=O)c3ccncc3)c2O[C@H]1CN(C)Cc1ccc(C(F)(F)F)cc1`: the activity change, negative = cytotoxicity (at 19.5 µM (top of the series)) is 0.884% (inactive). On to `COc1ccc(CN(C)C[C@@H]2Oc3c(NC(=O)Nc4ccc(C(F)(F)F)cc4)cccc3C(=O)N([C@@H](C)CO)C[C@@H]2C)cc1`, for which, where the note is “at 19.5 µM (top of the series)”, the activity change, negative = cytotoxicity is -25.6% (inactive). Still for that read-out and setting: the figure for `C[C@@H]1CN([C@H](C)CO)C(=O)c2cccc(NC(=O)c3ccncc3)c2O[C@@H]1CN(C)Cc1ccc2c(c1)OCO2` is -25.6% (inactive). `C[C@H]1CN([C@@H](C)CO)C(=O)Cc2cc(NS(=O)(=O)c3ccc(Cl)cc3)ccc2O[C@@H]1CN(C)S(=O)(=O)c1ccc(Cl)cc1`: the activity change, negative = cytotoxicity (at 18 µM (top of the series)) was -1.6% (inactive). `Cc1ccc(S(=O)(=O)Nc2ccc3c(c2)CC(=O)N([C@H](C)CO)C[C@H](C)[C@@H](CN(C)Cc2ccccc2)O3)cc1`: the activity change, negative = cytotoxicity (at 19.5 µM (top of the series)) is -0.645% (inactive). On the same count and under the same terms, as for `Cc1noc(C)c1NC(=O)Nc1cccc2c1O[C@@H](CN(C)S(C)(=O)=O)[C@@H](C)CN([C@H](C)CO)C2=O`, the figure is 13.3% (inactive). Still for that read-out and setting: the figure for `C[C@@H]1CN([C@H](C)CO)C(=O)c2cccc(NC(=O)c3ccncc3)c2O[C@@H]1CN(C)Cc1ccccc1` is 4.84% (inactive).

In the case of `C[C@@H]1CN([C@@H](C)CO)C(=O)c2cccc(NC(=O)c3nc4ccccc4s3)c2O[C@@H]1CN(C)S(=O)(=O)c1ccc(Cl)cc1`, the activity change, negative = cytotoxicity (at 19.5 µM (top of the series)) was -8.38% (inactive). For `C[C@H](CO)N1C[C@H](C)[C@@H](CN(C)S(=O)(=O)c2ccccc2)Oc2c(NC(=O)c3nc4ccccc4s3)cccc2C1=O`, under “at 19.5 µM (top of the series)”, the activity change, negative = cytotoxicity is -18.8% (inactive). With `C[C@@H]1CN([C@@H](C)CO)C(=O)c2cccc(NC(=O)Nc3ccc(C(F)(F)F)cc3)c2O[C@H]1CN(C)Cc1ccc(Cl)c(Cl)c1`, the activity change, negative = cytotoxicity (at 19.5 µM (top of the series)) was -34.5% (inactive). The same measure, in the same setting: the figure for `Cc1ccc(S(=O)(=O)N(C)C[C@H]2Oc3c(NC(=O)c4nc5ccccc5s4)cccc3C(=O)N([C@H](C)CO)C[C@@H]2C)cc1` is -6.91% (inactive); for `Cc1ccc(S(=O)(=O)Nc2ccc3c(c2)CC(=O)N([C@H](C)CO)C[C@@H](C)[C@H](CN(C)Cc2ccc4c(c2)OCO4)O3)cc1` it is 11% (inactive). Still for that read-out and setting: the figure for `C[C@@H]1CN([C@H](C)CO)C(=O)c2cccc(NC(=O)c3ccncc3)c2O[C@@H]1CN(C)Cc1ccc(C(F)(F)F)cc1` is -24.5% (inactive); for `Cc1noc(C)c1NC(=O)Nc1cccc2c1O[C@@H](CN(C)S(C)(=O)=O)[C@@H](C)CN([C@@H](C)CO)C2=O` it is -35% (inactive). Same read-out and setting: as for `C[C@@H]1CN([C@@H](C)CO)C(=O)c2cccc(NC(=O)c3ccncc3)c2O[C@@H]1CN(C)Cc1ccc(-c2ccccc2)cc1`, the figure is 19.3% (inactive); as for `C[C@H]1CN([C@@H](C)CO)C(=O)c2cccc(NC(=O)c3ccncc3)c2O[C@@H]1CN(C)Cc1ccc(Cl)c(Cl)c1`, -25.7% (inactive).

For the origin of these results see PubChem BioAssay AID651817 (Broad Institute, 2012).
